{"source": "patent US6689383B1", "about": "“Chromium-histidine complexes as nutrient supplements” (The United States of America as represented by the …, priority 1999, dated 2004)", "key": {"[1]": {"test_system": "hemoglobin A1C", "conditions": "type 2 diabetes, cited from earlier work"}, "[2]": {"test_system": "steroid-induced diabetes", "conditions": "600 μg of chromium per day for 2 weeks followed by daily maintenance dose of 200 μg; cited from earlier work"}, "[3]": {"test_system": "insulin sensitivity", "conditions": "1000 μg daily of supplemental chromium, obese subjects with family history of diabetes; cited from earlier work"}, "[4]": {"assay": "Chromium absorption in humans based on urinary chromium excretion", "procedure": "Experiments were carried out to investigate the efficacy of chromium-histidine complexes in the absorption process. Chromium was administered in the formulations listed in Table 1 at dosages of 200 μg chromium to three adult males and three females, and absorption during the first 24 hours was measured based on urinary chromium excretion."}, "[5]": {"assay": "Water solubility", "format": "physicochemical"}, "[6]": {"assay": "Stability", "format": "physicochemical", "conditions": "aqueous solutions"}, "[7]": {"conditions": "chromium picolinate: at intakes up to 1000 μg per day; cited from earlier work"}}, "note": "Like-named read-outs stand apart in the source and are kept apart here. Marks after values point to notes of the source that are not given here."}
{"molecule": "Chromium picolinate", "values": [{"measurement": "Hemoglobin A1C", "setting": "[1]; 200 μg chromium per day for 4 months", "result": "7.5±0.2", "unit": "%"}, {"measurement": "Hemoglobin A1C", "setting": "[1]; 1000 μg of chromium per day for 4 months", "result": "6.6±0.1", "unit": "%"}, {"measurement": "People whose steroid-induced diabetes improved to acceptable levels", "setting": "[2]", "result": "47 of 50"}, {"measurement": "Insulin sensitivity", "setting": "[3]", "result": "improved"}]}
{"molecule": "N[C@@H](Cc1c[nH]cn1)C(=O)O.[Cr]", "note": "[Chromium histidine]", "values": [{"measurement": "Absorption level relative to chromium picolinate", "setting": "[4]; 200 μg chromium, first 24 hours, urinary chromium excretion", "result": "almost twice"}, {"measurement": "Water solubility", "setting": "[5]", "result": "water-soluble"}, {"measurement": "Stability", "setting": "[6]", "result": "stable in aqueous solutions"}]}
{"molecule": "[Cl][Cr]([Cl])[Cl]", "note": "[Chromium chloride]", "values": [{"measurement": "μGRAMS ABSORBED (chromium absorbed)", "setting": "[4]; first 24 hours following intake of 200 μg of chromium, based on urinary chromium excretion, 3 adult males and 3 females", "result": "0.44 ± 0.07^b μGRAMS"}, {"measurement": "Absorption of chromium", "setting": "[7]", "result": "approximately 0.4%"}]}
